Reference: patent US8084645B2, “4-phenylamino-benzaldoxime derivatives and uses thereof as mitogen-activated protein kinase kinase (MEK) inhibitors” (Chugai Seiyaku Kabushiki Kaisha, priority 2003, dated 2011)
In brackets after ≈: the same amount, converted by molar mass.

Tests used:
[1] = Determination of stability against mouse liver microsomes; assay type: in vitro ADME; settings: mouse liver microsomes 1 mg protein/mL, 2 mM NADPH, pH 7.4, 37 C; read-out: Stability against mouse liver microsome NADPH+ T1/2
Experimental: (§1) The enzyme reaction was quenched with three volumes of acetonitrile, and the reaction mixture was centrifuged at 1,500 rpm for ten minutes to provide a supernatant as a sample to be measured. Stability against mouse liver microsomes was measured using HPLC/MS to determine the compounds in the sample.

[2] = tested on: Human colon cancer cell line HT-29; assay: Determination of the activity of inhibiting cell proliferation (Cell Counting Kit-8); assay type: cell-based; settings: HT-29, 96 h, HT29, 2,000 cells/well, incubated four days, read-out: Cell proliferation inhibitory activity (HT29) IC50
Experimental: Human colon cancer cell line HT-29, obtained from American Type Culture Collection (VA, USA), and human non-small cell lung cancer cell line QG56, obtained from Immuno-Biological Laboratories Co., Ltd., were plated at 2,000 cells/well in a 96-well culture plate, and incubated for four days after addition of a MEK inhibitor of a given concentration.

[3] = Determination of stability against human liver microsomes; assay type: in vitro ADME; settings: human liver microsomes 1 mg protein/mL, 2 mM NADPH, pH 7.4, 37 C; read-out: Stability against human liver microsome NADPH+ T1/2
Experimental: as §1, with “human” for “mouse”

[4] = phase I clinical trials; cited from earlier work
[5] = target: MEK (Homo sapiens, UniProt Q02750); assay: Determination of MEK inhibitory activities (Raf-1 kinase cascade assay, MBP phosphorylation, 33P-ATP)
Text: The radioisotope used was [γ^33P]-ATP (Amersham Biosciences, K.K.).

[6] = Determination of water solubility (equilibrium stirring method); assay type: physicochemical; settings: 50 mM phosphate buffer pH 6.5, room temperature (20 C); for solubility at 2 h: aqueous buffer, thermodynamic from solid, read-out: Water solubility (LySA PH 6.5)
Experimental: The vessels were sealed, and the contents were sonicated at room temperature (20° C.) for ten minutes, and then stirred with a stirrer for two hours. After reaching solution equilibrium, the solution was separated with a membrane filter, and the solute concentration was determined using HPLC.

Sequence of MEK (Q02750 whole entry): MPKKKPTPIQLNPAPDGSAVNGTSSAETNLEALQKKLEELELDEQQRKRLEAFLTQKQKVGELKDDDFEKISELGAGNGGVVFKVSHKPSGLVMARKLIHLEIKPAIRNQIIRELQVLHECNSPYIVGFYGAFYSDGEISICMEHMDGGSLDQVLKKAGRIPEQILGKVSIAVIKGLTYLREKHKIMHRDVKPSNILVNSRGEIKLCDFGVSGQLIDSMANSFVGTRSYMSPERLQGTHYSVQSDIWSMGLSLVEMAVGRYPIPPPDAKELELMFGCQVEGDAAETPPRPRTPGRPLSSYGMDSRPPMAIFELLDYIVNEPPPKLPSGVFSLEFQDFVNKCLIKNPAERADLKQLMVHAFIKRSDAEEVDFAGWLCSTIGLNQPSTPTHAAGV

SMILES	half-life [1] [h]	IC50 [2] [nM]	half-life [3] [h]	differences in pharmacokinetic parameters between patients [4]	in vivo inactivation [4]	IC50 [5] [nM]	solubility at 2 h [6] [µM]	Water solubility (LySA PH 6.5) [6] [µM]
O=C(NOCC1CC1)c1ccc(F)c(F)c1Nc1ccc(I)cc1Cl [CI-1040, reference compound]	0.18	100	0.482	large differences	quick in vivo inactivation by hydrolysis	–	–	–
O=C(CO/N=C/c1cc(C(=O)NOCCO)c(Nc2ccc(I)cc2F)c(F)c1F)NCCO [Compound 45, (E)-3,4-difluoro-2-(2-fluoro-4-iodo-phenylamino)-N-(2-hydroxy-ethoxy)-5-{[(2-hydroxyethylcarbamoyl)-methoxyimino]-methyl}-benzamide]	2.15	196	> 6	–	–	267	73 (≈ 43.5 µg/mL)	–
CS(=O)(=O)NCCO/N=C/c1cc(C(=O)NOCCO)c(Nc2ccc(I)cc2F)c(F)c1F [Compound 47, (E)-3,4-difluoro-2-(2-fluoro-4-iodo-phenylamino)-N-(2-hydroxy-ethoxy)-5-[(2-methanesulfonylamino-ethoxyimino)-methyl]-benzamide]	> 6	138	> 6	–	–	209	11 (≈ 6.78 µg/mL)	–
C#Cc1ccc(Nc2c(C(=O)NOCCO)cc(/C=N\OCCO)c(F)c2F)c(F)c1 [Compound 48, (Z)-2-(4-ethynyl-2-fluoro-phenylamino)-3,4-difluoro-N-(2-hydroxy-ethoxy)-5-[(2-hydroxy-ethoxyimino)-methyl]-benzamide]	2.03	13	0.603	–	–	51	301 (≈ 132 µg/mL)	–
O=C(NOCCO)c1cc(/C=N\OCCO)c(F)c(F)c1Nc1ccc(I)cc1F [Compound 49, (Z)-3,4-difluoro-2-(2-fluoro-4-iodo-phenylamino)-N-(2-hydroxy-ethoxy)-5-[(2-hydroxy-ethoxyimino)-methyl]-benzamide]	> 6	4.8	> 6	–	–	31	–	75
O=C(NOCCO)c1cc(/C=N\OCC(O)CO)c(F)c(F)c1Nc1ccc(I)cc1F (stereo not drawn) [Compound 52, (dl)-(Z)-5-[(2,3-Dihydroxy-propoxyimino)-methyl]-3,4-difluoro-2-(2-fluoro-4-iodo-phenylamino)-N-(2-hydroxy-ethoxy)-benzamide]	> 6	5.8	> 6	–	–	15	175 (≈ 99.6 µg/mL)	–
CC(=O)NCCO/N=C\c1cc(C(=O)NOCCO)c(Nc2ccc(I)cc2F)c(F)c1F [Compound 54, (Z)-5-[(2-Acetylamino-ethoxyimino)-methyl]-3,4-difluoro-2-(2-fluoro-4-iodo-phenylamino)-N-(2-hydroxy-ethoxy)-benzamide]	> 6	6.5	> 6	–	–	21	20 (≈ 11.6 µg/mL)	–
CNC(=O)CCCO/N=C\c1cc(C(=O)NOCCO)c(Nc2ccc(I)cc2F)c(F)c1F [Compound 55]	> 6	4.6	1.62	–	–	37	12 (≈ 7.13 µg/mL)	–
CNC(=O)CO/N=C\c1cc(C(=O)NOCCO)c(Nc2ccc(I)cc2F)c(F)c1F [Compound 56, (Z)-3,4-Difluoro-2-(2-fluoro-4-iodo-phenylamino)-N-(2-hydroxy-ethoxy)-5-(methylcarbamoylmethoxyimino-methyl)-benzamide]	0.645	3.4	> 6	–	–	49	85 (≈ 48.1 µg/mL)	–
O=C(CO/N=C\c1cc(C(=O)NOCCO)c(Nc2ccc(I)cc2F)c(F)c1F)NCCO [Compound 57, (Z)-3,4-Difluoro-2-(2-fluoro-4-iodo-phenylamino)-N-(2-hydroxy-ethoxy)-5-{[(2-hydroxyethylcarbamoyl)-methoxyimino]-methyl}-benzamide]	> 6	27	> 6	–	–	19	224 (≈ 134 µg/mL)	–
